Source: patent US8217043B2, “Compounds and methods for their use” (Fibrogen, Inc., priority 2008, dated 2012)

Target: T1, HIF-PH2 (EGLN1) (Homo sapiens, UniProt Q9GZT9)
T1 construct: made in house; host or cells: insect Hi5 cells
Assay: HIF-PH assay (14CO2 capture, peptide-dependent turnover)
Assay type: biochemical
Settings: for inhibition at 50 µM: Concentration 50 μM; for inhibition at 200 µM: Concentration 200 μM; for inhibition at 67 µM: Concentration 67 μM
Description: Ketoglutaric acid α-[1-^14C]-sodium salt, alpha-ketoglutaric acid sodium salt, and HPLC purified peptide may be obtained from commercial sources, e.g., Perkin-Elmer (Wellesley Mass.), Sigma-Aldrich, and SynPep Corp. (Dublin Calif.), respectively. Peptides for use in the assay may be fragments of HIFα as described above or as disclosed in International Publication WO 2005/118836, incorporated by reference herein. HIF-PH, e.g., HIF-PH2 (EGLN1), can be expressed in, e.g., insect Hi5 cells, and partially purified, e.g., through a SP ion exchange chromatography column. Enzyme activity is determined by capturing ^14CO2 using an assay described by Kivirikko and Myllyla (1982, Methods Enzymol. 82:245-304). Assay reactions contain 50 mM HEPES (pH 7.4), 100 μM α-ketoglutaric acid sodium salt, 0.30 μCi/mL ketoglutaric acid α-[1-^14C]-sodium salt, 40 μM FeSO4, 1 mM ascorbate, 1541.8 units/mL Catalase, with or without 50 μM peptide substrate and various concentrations of compound of the invention. Reactions are initiated by addition of HIF-PH enzyme.
The peptide-dependent percent turnover is calculated by subtracting percent turnover in the absence of peptide from percent turnover in the presence of substrate peptide. Percent inhibition and IC50 are calculated using peptide-dependent percent turnover at given inhibitor concentrations. Calculation of IC50 values for each inhibitor is conducted using GraFit software (Erithacus Software Ltd., Surrey UK).
Representative compounds of the invention were analyzed using the HIF-PH assay described above. Table 1 presents enzyme inhibition data for exemplary compounds against HIF-PH2, a representative HIF prolyl hydroxylase. By inhibiting HIF prolyl hydroxylase, compounds of the invention stabilize HIFα, which then combines with HIFβ to form an active transcription factor that increases expression of various genes involved in numerous beneficial cellular processes.

T1 sequence (Q9GZT9 whole entry, species assumed): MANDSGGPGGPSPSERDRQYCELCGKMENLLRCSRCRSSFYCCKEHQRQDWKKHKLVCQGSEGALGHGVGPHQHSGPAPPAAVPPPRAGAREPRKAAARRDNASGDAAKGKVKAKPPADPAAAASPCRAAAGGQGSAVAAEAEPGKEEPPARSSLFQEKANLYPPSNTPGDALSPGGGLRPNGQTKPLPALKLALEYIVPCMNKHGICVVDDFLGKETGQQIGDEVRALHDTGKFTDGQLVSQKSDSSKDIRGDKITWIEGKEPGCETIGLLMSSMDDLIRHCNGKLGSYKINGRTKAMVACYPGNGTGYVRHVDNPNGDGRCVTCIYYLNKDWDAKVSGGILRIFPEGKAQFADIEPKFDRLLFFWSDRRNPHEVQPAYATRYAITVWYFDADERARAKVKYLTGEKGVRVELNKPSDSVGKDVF

Row | Structure (SMILES) | inhibition at 50 µM | inhibition at 200 µM | other results
1 | C[C@H](NC(=O)c1c(O)c2cc3ccccc3n2n(Cc2ccc(F)cc2)c1=O)C(=O)O [Example 19, 2-(S)-{[4-(4-Fluoro-benzyl)-1-hydroxy-3-oxo-3,4-dihydro-4,4a-diaza-fluorene-2-carbonyl]-amino}-propionic acid] | 99% |  | 
2 | O=C(O)CNC(=O)c1c(O)c2cccn2n(Cc2ccc3ccccc3c2)c1=O [Example 9, [(4-Hydroxy-1-naphthalen-2-ylmethyl-2-oxo-1,2-dihydro-pyrrolo[1,2-b]pyridazine-3-carbonyl)-amino]-acetic acid] |  | 100% | 
3 | C[C@H](NC(=O)c1c(O)c2cc(Cl)cn2n(Cc2cccnc2)c1=O)C(=O)O [Example 39, 2-(S)-[(6-Chloro-4-hydroxy-2-oxo-1-pyridin-3-ylmethyl-1,2-dihydro-pyrrolo[1,2-b]pyridazine-3-carbonyl)-amino]-propionic acid] |  |  | inhibition at 67 µM: 97%
4 | CC[C@H](NC(=O)c1c(O)c2cc(Cl)cn2n(Cc2ccc(F)cc2)c1=O)C(=O)O [Example 34, 2-(S)-{[6-Chloro-1-(4-fluoro-benzyl)-4-hydroxy-2-oxo-1,2-dihydro-pyrrolo[1,2-b]pyridazine-3-carbonyl]-amino}-butyric acid] |  |  | inhibition at 67 µM: 86%
5 | O=C(O)CNC(=O)c1c(O)c2cccn2n(Cc2ccc(F)cc2F)c1=O [Example 6, {[1-(2,4-Difluoro-benzyl)-4-hydroxy-2-oxo-1,2-dihydro-pyrrolo[1,2-b]pyridazine-3-carbonyl]-amino}-acetic acid] |  | 100% | 
6 | C[C@H](NC(=O)c1c(O)c2cc(Cl)cn2n(Cc2ccccn2)c1=O)C(=O)O [Example 41, 2-(S)-[(6-Chloro-4-hydroxy-2-oxo-1-pyridin-2-ylmethyl-1,2-dihydro-pyrrolo[1,2-b]pyridazine-3-carbonyl)-amino]-propionic acid] | 91% |  | 
7 | O=C(O)CNC(=O)c1c(O)c2cc(Cl)c(Cl)n2n(Cc2ccc(F)cc2)c1=O [Example 42, {[6,7-Dichloro-1-(4-fluoro-benzyl)-4-hydroxy-2-oxo-1,2-dihydro-pyrrolo[1,2-b]pyridazine-3-carbonyl]-amino}-acetic acid] | 95% |  | 
8 | COc1ccc(Cn2c(=O)c(C(=O)NCC(=O)O)c(O)c3cc(Cl)cn32)cc1 [Example 31, {[6-Chloro-1-(4-methoxy-benzyl)-4-hydroxy-2-oxo-1,2-dihydro-pyrrolo[1,2-b]pyridazine-3-carbonyl]-amino}-acetic acid] |  |  | inhibition at 67 µM: 100%
9 | CCCCCCn1c(=O)c(C(=O)NCC(=O)O)c(O)c2cccn21 [Example 20, [(1-Hexyl-4-hydroxy-2-oxo-1,2-dihydro-pyrrolo[1,2-b]pyridazine-3-carbonyl)-amino]-acetic acid] | 97% |  | 
10 | O=C(O)CNC(=O)c1c(O)c2cc3cc(F)ccc3n2n(Cc2ccc(F)cc2)c1=O [Example 21, {[7-Fluoro-4-(4-fluoro-benzyl)-1-hydroxy-3-oxo-3,4-dihydro-4,4a-diaza-fluorene-2-carbonyl]-amino}-acetic acid] | 99% |  | 
11 | CC[C@H](NC(=O)c1c(O)c2cccn2n(Cc2ccc(C(F)(F)F)cc2)c1=O)C(=O)O [Example 25, 2-(S)-{[4-Hydroxy-2-oxo-1-(4-trifluoromethyl-benzyl)-1,2-dihydro-pyrrolo[1,2-b]pyridazine-3-carbonyl]-amino}-butyric acid] |  | 98% | 
12 | O=C(O)CNC(=O)c1c(O)c2cccn2n(Cc2ccccc2Cl)c1=O [Example 7, {[1-(2-Chloro-benzyl)-4-hydroxy-2-oxo-1,2-dihydro-pyrrolo[1,2-b]pyridazine-3-carbonyl]-amino}-acetic acid] |  | 100% | 
13 | O=C(O)CNC(=O)c1c(O)c2cccn2n(Cc2c(F)cccc2F)c1=O [Example 15, {[1-(2,6-Difluoro-benzyl)-4-hydroxy-2-oxo-1,2-dihydro-pyrrolo[1,2-b]pyridazine-3-carbonyl]-amino}-acetic acid] |  |  | inhibition at 125 µM (Concentration 125 μM): 94%
